Experimental findings from US9944598B2, “Mono- or di-substituted indole derivatives as dengue viral replication inhibitors” (priority 2014, dated 2018) are described below.

pEC50: −log10 of the molar value.

Series [1] deals with DENV-2 16681 strain labeled with eGFP. Put plainly: DENV-2 antiviral assay (eGFP fluorescence, Vero cells). The format is cell-based, Dengue virus. The note with it: DENV-2 16681 eGFP, MOI 0.5, 3 days. The method, then: The antiviral activity of all the compounds of the invention was tested against DENV-2 16681 strain which was labeled with enhanced green fluorescent protein (eGPF). The culture medium consists of minimal essential medium supplemented with 2% of heat-inactivated fetal calf serum, 0.04% gentamycin (50 mg/mL) and 2 mM of L-glutamine. Vero cells, obtained from ECACC, were suspended in culture medium and 25 μL was added to 384-well plates (2500 cells/well), which already contain the antiviral compounds. Typically, these plates contain a 4-fold serial dilution of 9 dilution steps of the test compound at 200 times the final concentration in 100% DMSO (200 nL). In addition, each compound concentration is tested in quadruplicate (final concentration range: 25 μM-0.00038 μM). Finally, each plate contains wells which are assigned as virus controls (containing cells and virus in the absence of compound), cell controls (containing cells in the absence of virus and compound) and medium controls (containing medium in the absence of cells, virus and compounds). To the wells assigned as medium control, 25 μL of culture medium was added instead of Vero cells. Once the cells were added to the plates, the plates were incubated for 30 minutes at room temperature to allow the cells to distribute evenly within the wells. Next, the plates were incubated in a fully humidified incubator (37° C., 5% CO2) until the next day. Then, DENV-2 strain 16681, labeled with eGFP, was added at a multiplicity of infection (MOI) of 0.5. Therefore, 15 μL of virus suspension was added to all the wells containing test compound and to the wells assigned as virus control. In parallel, 15 μL of culture medium was added to the medium and cell controls. Next, the plates were incubated for 3 days in a fully humidified incubator (37° C., 5% CO2). At the day of the read out, the eGFP fluorescence was measured using an automated fluorescence microscope at 488 nm (blue laser). Using an in-house LIMS system, inhibition dose response curves for each compound were calculated and the half maximal effective concentration (EC50) was determined. Therefore, the percent inhibition (I) for every test concentration is calculated using the following formula: I=100*(ST−SCC)/(SVC−SCC); ST, SCC and SVC are the amount of eGFP signal in the test compound, cell control and virus control wells, respectively. The EC50 represents the concentration of a compound at which the virus replication is inhibited with 50%, as measured by a 50% reduction of the eGFP fluorescent intensity compared to the virus control. The EC50 is calculated using linear interpolation (Table 1).

Another series is described as follows: in vitro. To be noted: African green monkey, CC50. The series is classed as cell-based. The method, then: (§1) In parallel, the toxicity of the compounds was assessed on the same plates. Once the read-out for the eGFP signal was done, 10 μL of resazurin, a cell viability stain, was added to all wells of the 384-well plates. The resazurin assay is based on the reduction of the blue resazurin by NADH, produced by the cells, into the highly fluorescent product, resorufin. The formation of pink fluorescent resorufin is directly related to the number of viable cells in the well. The plates were incubated for an additional 5 hours in a fully humidified incubator (37° C., 5% CO2). Next, the plates were measured on an Infinite reader (Tecan) using an excitation wavelength of 530 nm. The half maximal cytotoxic concentration (CC50) was also determined, defined as the concentration required to reduce the resazurin conversion by 50% compared to that of the cell control wells (Table 1). Finally, the selectivity index (SI) is determined for the compounds, which is calculated as followed: SI=CC50/EC50.

A further series relates to Vero cells. Put plainly: in vitro. The format is cell-based. The note with it: African green monkey. The method, then: as §1
[2] abbreviates: Dengue virus, DENV2, Vero, 72 h.

For orientation: pEC50 means the EC50 on a negative log10 scale, so that one unit is a factor of ten. A word on the CC50: it is the concentration giving 50% cytotoxicity. Regarding `COc1cc(NC(C(=O)c2c[nH]c3cc(F)ccc23)c2ccc(Cl)cc2OC)cc(OCCO)c1` (racemic) [Compound 1, 2-(4-chloro-2-methoxyphenyl)-1-(6-fluoro-1H-indol-3-yl)-2-((3-(2-hydroxyethoxy)-5-methoxyphenyl)amino)ethanone], in series [1] (setting [2]), the pEC50 was 8.52. Besides, the CC50 in the series “in vitro” turned out to be 6200 nM.

By melting point is commonly meant the temperature of the solid-liquid transition. `COc1cc(NC(C(=O)c2c[nH]c3c(C)c(Cl)ccc23)c2ccc(Cl)cc2OC)cc(OCCO)c1` (racemic) [Compound 3, 2-(4-chloro-2-methoxyphenyl)-1-(6-chloro-7-methyl-1H-indol-3-yl)-2-((3-(2-hydroxyethoxy)-5-methoxyphenyl)amino)ethanone] yielded a melting point of 220 °C. The compound also gave a pEC50 in series [1] (setting [2]) of 9.14. This compound also returned a CC50 in “in vitro” of 5500 nM.

In series [1] (setting [2]), `COc1cc(NC(C(=O)c2c[nH]c3cc(OC)ccc23)c2ccc(Cl)cc2OC)cc(OCCO)c1` (racemic) [Compound 5, 2-(4-chloro-2-methoxyphenyl)-2-((3-(2-hydroxyethoxy)-5-methoxyphenyl)amino)-1-(6-methoxy-1H-indol-3-yl)ethanone] showed a pEC50 of 8.64. Moreover, it took 6500 nM to reach half-maximal cytotoxicity in “in vitro” (CC50).

`COc1cc(NC(C(=O)c2c[nH]c3cc(OC)c(C)cc23)c2ccc(Cl)cc2OC)cc(OCCO)c1` (racemic) [Compound 6, 2-(4-chloro-2-methoxyphenyl)-2-((3-(2-hydroxyethoxy)-5-methoxyphenyl)amino)-1-(6-methoxy-5-methyl-1H-indol-3-yl)ethanone]: the pEC50 in series [1] (setting [2]) was 8.92. This compound also gave a CC50 in “in vitro” of 5600 nM.

Consider `COc1cc(NC(C(=O)c2c[nH]c3cc(OC)c(F)cc23)c2ccc(Cl)cc2OC)cc(OCCO)c1` (racemic) [Compound 7, 2-(4-chloro-2-methoxyphenyl)-1-(5-fluoro-6-methoxy-1H-indol-3-yl)-2-((3-(2-hydroxyethoxy)-5-methoxyphenyl)amino)ethanone], for which the pEC50 in series [1] (setting [2]) was 8.59. In addition, the CC50 in “in vitro” was 7400 nM.

With `COc1cc(NC(C(=O)c2c[nH]c3c(C)cc(F)cc23)c2ccc(Cl)cc2OC)cc(OCCO)c1` (racemic) [Compound 8, 2-(4-chloro-2-methoxyphenyl)-1-(5-fluoro-7-methyl-1H-indol-3-yl)-2-((3-(2-hydroxyethoxy)-5-methoxyphenyl)amino)ethanone], in series [1] (setting [2]), the pEC50 is 8.62. Half-maximal cytotoxicity in the series “in vitro” (CC50) was put at 8000 nM.

In the case of `COc1cc(NC(C(=O)c2c[nH]c3cc(F)c(F)cc23)c2ccc(Cl)cc2OC)cc(OCCO)c1` (racemic) [Compound 9, 2-(4-chloro-2-methoxyphenyl)-1-(5,6-difluoro-1H-indol-3-yl)-2-((3-(2-hydroxyethoxy)-5-methoxyphenyl)amino)ethanone], the pEC50 in series [1] (setting [2]) was 8.66. The compound also showed a CC50 in the series “in vitro” of 7300 nM.

In the case of `COc1cc(NC(C(=O)c2c[nH]c3c(F)c(F)ccc23)c2ccc(Cl)cc2OC)cc(OCCO)c1` (racemic) [Compound 11, 2-(4-chloro-2-methoxyphenyl)-1-(6,7-difluoro-1H-indol-3-yl)-2-((3-(2-hydroxyethoxy)-5-methoxyphenyl)amino)ethanone], in series [1] (setting [2]), the pEC50 was 8.51. This compound also gave a CC50 in “in vitro” of 5800 nM.

With `COc1cc(NC(C(=O)c2c[nH]c3cc(F)ccc23)c2ccc(Cl)cc2OC)cc(OCCO)c1` (single isomer, unassigned) [Compound 1B, 2-(4-chloro-2-methoxyphenyl)-1-(6-fluoro-1H-indol-3-yl)-2-((3-(2-hydroxyethoxy)-5-methoxyphenyl)amino)ethanone], the pEC50 in series [1] is 6.85. The same compound registered a CC50 in the series on Vero cells of 6300 nM.

With `COc1cc(NC(C(=O)c2c[nH]c3c(C)c(F)ccc23)c2ccc(Cl)cc2OC)cc(OCCO)c1` (single isomer, unassigned) [Compound 2B, 2-(4-chloro-2-methoxyphenyl)-1-(6-fluoro-7-methyl-1H-indol-3-yl)-2-((3-(2-hydroxyethoxy)-5-methoxyphenyl)amino)ethanone], in series [1], the pEC50 is 7.09. The midpoint of cytotoxicity in the series on Vero cells, the CC50, lay at 6200 nM.

`COc1cc(NC(C(=O)c2c[nH]c3c(C)c(Cl)ccc23)c2ccc(Cl)cc2OC)cc(OCCO)c1` (single isomer, unassigned) [Compound 3B, 2-(4-chloro-2-methoxyphenyl)-1-(6-chloro-7-methyl-1H-indol-3-yl)-2-((3-(2-hydroxyethoxy)-5-methoxyphenyl)amino)ethanone] had a negative logarithm of the EC50 (pEC50) in series [1] of 7.35. Moreover, the midpoint of cytotoxicity in the series on Vero cells, the CC50, lay at 7100 nM.

For `COc1cc(NC(C(=O)c2c[nH]c3cc(Cl)ccc23)c2ccc(Cl)cc2OC)cc(OCCO)c1` (single isomer, unassigned) [Compound 4B, 1-(6-chloro-1H-indol-3-yl)-2-(4-chloro-2-methoxyphenyl)-2-((3-(2-hydroxyethoxy)-5-methoxyphenyl)amino)ethanone], the pEC50 in series [1] was 7.35. Besides, the CC50 with Vero cells turned out to be 7400 nM.

On to `COc1cc(NC(C(=O)c2c[nH]c3cc(OC)ccc23)c2ccc(Cl)cc2OC)cc(OCCO)c1` (single isomer, unassigned) [Compound 5B, 2-(4-chloro-2-methoxyphenyl)-2-((3-(2-hydroxyethoxy)-5-methoxyphenyl)amino)-1-(6-methoxy-1H-indol-3-yl)ethanone], for which the pEC50 in series [1] is 6.40. Further, the cytotoxic concentration (CC50) in the series with Vero cells turned out to be 8100 nM.

`COc1cc(NC(C(=O)c2c[nH]c3cc(OC)c(C)cc23)c2ccc(Cl)cc2OC)cc(OCCO)c1` (single isomer, unassigned) [Compound 6B, 2-(4-chloro-2-methoxyphenyl)-2-((3-(2-hydroxyethoxy)-5-methoxyphenyl)amino)-1-(6-methoxy-5-methyl-1H-indol-3-yl)ethanone] showed a pEC50 in series [1] of 7.12. Besides, the CC50 in the series on Vero cells was 5400 nM.

`COc1cc(NC(C(=O)c2c[nH]c3cc(OC)c(F)cc23)c2ccc(Cl)cc2OC)cc(OCCO)c1` (single isomer, unassigned) [Compound 7B, 2-(4-chloro-2-methoxyphenyl)-1-(5-fluoro-6-methoxy-1H-indol-3-yl)-2-((3-(2-hydroxyethoxy)-5-methoxyphenyl)amino)ethanone] had a pEC50 in series [1] of 7.16. Also, half-maximal cytotoxicity in the series with Vero cells (CC50) was put at 7800 nM.

`COc1cc(NC(C(=O)c2c[nH]c3c(C)cc(F)cc23)c2ccc(Cl)cc2OC)cc(OCCO)c1` (single isomer, unassigned) [Compound 8B, 2-(4-chloro-2-methoxyphenyl)-1-(5-fluoro-7-methyl-1H-indol-3-yl)-2-((3-(2-hydroxyethoxy)-5-methoxyphenyl)amino)ethanone] had a negative logarithm of the EC50 (pEC50) in series [1] of 6.59. Further, the CC50 in the series on Vero cells is 5700 nM.

With `COc1cc(NC(C(=O)c2c[nH]c3c(F)cc(C)cc23)c2ccc(Cl)cc2OC)cc(OCCO)c1` (single isomer, unassigned) [Compound 10B, 2-(4-chloro-2-methoxyphenyl)-1-(7-fluoro-5-methyl-1H-indol-3-yl)-2-((3-(2-hydroxyethoxy)-5-methoxyphenyl)amino)ethanone], the pEC50 in series [1] is 6.72. For the same compound, the midpoint of cytotoxicity in the series on Vero cells, the CC50, lay at 3800 nM.

As for `COc1cc(NC(C(=O)c2c[nH]c3c(F)c(F)ccc23)c2ccc(Cl)cc2OC)cc(OCCO)c1` (single isomer, unassigned) [Compound 11A, 2-(4-chloro-2-methoxyphenyl)-1-(6,7-difluoro-1H-indol-3-yl)-2-((3-(2-hydroxyethoxy)-5-methoxyphenyl)amino)ethanone], the pEC50 in series [1] was 7.05. The cytotoxic concentration (CC50) in “in vitro” stood at 6500 nM.

Regarding `COc1cc(NC(C(=O)c2c[nH]c3c(F)cc(C)cc23)c2ccc(Cl)cc2OC)cc(OCCO)c1` (stereo not drawn) [Compound 10, 2-(4-chloro-2-methoxyphenyl)-1-(7-fluoro-5-methyl-1H-indol-3-yl)-2-((3-(2-hydroxyethoxy)-5-methoxyphenyl)amino)ethanone], the pEC50 in series [1] (setting [2]) was 8.12. In “in vitro”, the CC50 is 5800 nM.
